What was measured:
Assay in all cases: Test A preemergence
Conditions in all cases: 1000 g ai/ha, 0 to 100 scale (0 no effect, 100 complete control), 10 days
Pigweed, Redroot = format: in vivo, Amaranthus retroflexus
Excerpt: Seeds of plant species selected from barnyardgrass (Echinochloa crusgalli), blackgrass (Alopecurus myosuroides), corn (Zea mays), foxtail, giant (giant foxtail, Setaria faberi), goosegrass (Eleusine indica), kochia (Bassia scoparia), oat, wild (wild oat, Avena fatua), pigweed, palmer (palmer amaranth, palmer pigweed, Amaranthus palmeri), Pigweed, Redroot (redroot pigweed, Amaranthus retroflexus), ragweed (common ragweed, Ambrosia artemisiifolia), ryegrass, Italian (italian ryegrass, Lolium multiflorum), soybean (Glycine max), and wheat (Triticum aestivum) were planted into a blend of loam soil and sand and treated preemergence with a directed soil spray using test chemicals formulated in a non-phytotoxic solvent mixture which included a surfactant. At the same time, plants selected from these crops and weed species and also galium (catchweed bedstraw, Galium aparine) and horseweed (Erigeron canadensis) were planted in pots containing the same blend of loam soil and sand and treated with postemergence applications of test chemicals formulated in the same manner. Plants ranged in height from 2 to 10 cm and were in the one- to two-leaf stage for the postemergence treatment. Treated plants and untreated controls were maintained in a greenhouse for 10 days, after which time all treated plants were compared to untreated controls and visually evaluated for injury. Plant response ratings, summarized in Table A, are based on a 0 to 100 scale where 0 is no effect and 100 is complete control. A dash (-) response means no test result.

ryegrass, Italian = format: in vivo, Lolium multiflorum
How it was run: (§1)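 Loam/sand soil; pre-em directed soil spray at planting, post-em spray at 1–2 leaf (2–10 cm). Compound in non-phytotoxic solvent + surfactant. Greenhouse 10 d; visual injury vs untreated, 0 = no effect, 100 = complete control.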

kochia = format: in vivo, Bassia scoparia
How it was run: as §1

ragweed = format: in vivo, Ambrosia artemisiifolia
How it was run: as §1

barnyardgrass = format: in vivo, Echinochloa crusgalli
How it was run: as §1

foxtail, giant = format: in vivo, Setaria faberi
How it was run: as §1

Row | SMILES | Plant response rating, Pigweed, Redroot (Pigweed, Redroot) | Plant response rating, Ryegrass, Italian (ryegrass, Italian) | Plant response rating, Kochia (kochia) | Plant response rating, Ragweed (ragweed) | Plant response rating, Barnyardgrass (barnyardgrass) | Plant response rating, Foxtail, Giant (foxtail, giant)
1 | CCC1CN(C(=O)c2ccnc(-n3cncn3)c2)c2ccc(Cl)cc2O1 (stereo not drawn) [Compound 16] | 20 | 0 | 20 | 0 | 0 | 0
2 | CCC1CN(C(=O)c2ccnc(-n3cncn3)c2)c2c(Cl)cccc2O1 (stereo not drawn) [Compound 14] | 10 | 20 | 30 | 0 | 0 | 30
3 | CCC1CN(C(=O)c2ccnc(-n3cncn3)c2)c2cccc(F)c2O1 (stereo not drawn) [Compound 15] | 90 | 60 | 60 | 0 | 60 | 100
4 | CCC1CN(C(=O)c2ccnc(-n3cncn3)c2)c2cc(Cl)ccc2O1 (stereo not drawn) [Compound 12] | 0 | 0 | 0 | 0 | 0 | 20

— patent publication US20260262643A1, “HERBICIDAL BENZOXAZINES” (FMC CORPORATION, priority 2022, published 2026)
